Laboratory results from patent publication US20250186600A1, “EXCIPIENT COMPOUNDS FOR PROTEIN FORMULATIONS” (Comera Life Sciences, Inc., priority 2020, published 2025).
Counter-ions that a name gives are not always drawn. Residues, ends and D or L forms follow the SMILES beside them.

Experiments:
omalizumab [1] = experiment: Diffusion interaction parameter kD of omalizumab by DLS (Example 62); conditions: omalizumab 10 to 0.6 mg/mL, 0.1M excipient, His HCl pH 6.0, 25° C.
omalizumab [2] = experiment: Viscosity of omalizumab solution by DLS of gold nanoparticles (Example 62); conditions: omalizumab approximately 200 mg/mL, excipient 0.1M or lower, His HCl pH 6.0, 25° C.
omalizumab [3] = experiment: DLS viscosity of concentrated omalizumab (Example 54); assay type: physicochemical; conditions: concentrated omalizumab 9 parts : 1 part excipient stock (1 M or solubility limit), 20 mM HisHCl pH 6
Description: Hordenine HCl was purchased from Bulk Supplements (Henderson, NV).
The concentrated protein formulation was then combined with a stock excipient solution or a control at a ratio of 9 parts protein: 1 part excipient solution or buffer (for the control), and aliquots were added to the wells of a 384 well microplate (Aurora Microplates, Whitefish, MT). […] After the microplate was shaken, 2 microliters of a 5-fold dilution of polyethylene glycol surface-modified gold nanoparticles having a diameter of 100 nm (nanoComposix, San Diego, CA) in 20 mM His HCl were added to each sample well. […] In this example, the ratio of apparent radius to the actual radius of the gold nanoparticle was multiplied by the viscosity of water at 25° C. to calculate the viscosity of the protein formulation in centipoise (cP).

ustekinumab [4] = experiment: Urea denaturation, Sypro orange fluorescence (Example 44); assay type: physicochemical; conditions: excipient 5 mg/mL, ustekinumab 1 mg/mL, 6M urea, 20 mM histidine pH 6.0, Sypro orange fluorescence
Text: It is known that urea denatures proteins in solution and causes them to unfold. The screening methodology in this example involved adding a specific concentration of urea to a therapeutic protein solution such as ustekinumab. […] One method to track protein unfolding involves the use of extrinsic fluorescent dyes such as Sypro orange. Sypro orange binds to hydrophobic regions in the unfolded protein structure, leading to an increase in the fluorescence signal observed. Measuring the differences in the fluorescence intensity of unfolded protein-Sypro orange complex in presence of different excipients thus allows one to identify any stabilizing effects.
All excipients used in this Example, listed in Table 45 below, were of the highest purity, and were obtained from Sigma Aldrich (St. Louis, MO) or Cayman Chemical (Ann Arbor, MI). […] This urea stock solution was then added to a final concentration of 6M to produce the test solutions (excipient plus protein plus urea). […] The pH of the mixture was rechecked and confirmed to be at pH 6.0. The test solutions were allowed to incubate at room temperature for 30 min.

ustekinumab [5] = experiment: Stabilization at low pH, Sypro orange fluorescence (Example 45); conditions: excipient 5 mg/mL, ustekinumab 1 mg/mL, glycine acidification buffer pH 2.6, Sypro orange fluorescence
[6] = system: proteins described in Table 50; experiment: DLS diffusion interaction parameter kD (Example 49); assay type: physicochemical; conditions: mixed 1:1 with protein solution, 20 mM His HCl pH 6, 25° C.
Description: The resulting solution was titrated to pH 6 by dropwise addition of 1 M hydrochloric acid. After pH adjustment, the buffer was diluted to a final volume of 1 L in a volumetric flask with Type 1 ultrapure water. All excipients used in this Example, listed in Table 50 below, were of the highest purity, and were obtained from Sigma Aldrich (St. Louis, MO) or Cayman Chemical (Ann Arbor, MI).
A series of six test protein solutions were prepared using the proteins described in Table 50, ranging in protein concentration from about 4 mg/mL to about 20 mg/mL, all in 20 mM His HCl buffer at pH 6. […] A second centrifuge step was completed to remove air bubbles. The diffusion interaction parameter (kD) of these protein-excipient formulations was measured by dynamic light scattering (DLS) in dilute solution as a way of probing the impact of excipients on protein-protein interactions (PPI). […] A more negative kD indicated a stronger net attractive PPI and a more positive kD indicated a stronger net repulsive PPI.

[7] = excipient stock concentration 200 mM
[8] = excipient stock concentration 100 mM

Compound: O=C(O)/C=C/c1ccc(O)c(O)c1 [caffeic acid]
- kD (omalizumab [1]; Table 62A series): -33.9 mL/g
- Viscosity normalized to control (omalizumab [2]; Table 62A series): 0.73

Compound: NCCCN [1,3-diaminopropane]
- kD (omalizumab [1]; Table 62B series): -11.4 mL/g
- Viscosity normalized to control (omalizumab [2]; Table 62B series): 0.22

Compound: CN[C@@H]1[C@H](O)[C@H](NC)[C@H]2O[C@@]3(O)C(=O)C[C@@H](C)O[C@H]3O[C@@H]2[C@H]1O [Spectinomycin]
- DLS Viscosity, Replicate 1 (omalizumab [3]): 60.1 cP
- DLS Viscosity, Replicate 2 (omalizumab [3]): 33.9 cP

Compound: NC(C(=O)O)C(O)c1ccccc1 (racemic) [DL-3-phenylserine]
- kD (omalizumab [1]; Table 62B series): -30.7 mL/g
- Viscosity normalized to control (omalizumab [2]; Table 62B series): 1.04

Compound: CN1CCN(C)C1=O [1,3-Dimethyl-2-imidazolidinone]
- kD (omalizumab [1]; Table 62A series): -30.9 mL/g
- Viscosity normalized to control (omalizumab [2]; Table 62A series): 0.98

Compound: CCCCc1ncc[nH]1 [Excipient 2-butylimidazole, 2-butylimidazole]
- DLS Viscosity, Replicate 1 (omalizumab [3]): 26.0 cP

Compound: Cn1ccnc1 [Excipient 1-methylimidazole, 1-methylimidazole]
- DLS Viscosity, Replicate 1 (omalizumab [3]): 53.4 cP
- DLS Viscosity, Replicate 2 (omalizumab [3]): 54.8 cP

Compound: O=C(O)c1ccncc1 [isonicotinic acid]
- % increased stability (ustekinumab [4]): 4.4%

Compound: NCCc1c[nH]c2ccccc12 [Tryptamine]
- % increased stability (ustekinumab [4]): 11.6%

Compound: Nc1nc(=O)c2c([nH]1)NCC(CNc1ccc(C(=O)N[C@@H](CCC(=O)[O-])C(=O)[O-])cc1)N2C=O.[Ca+2] (stereo partly shown) [folinic acid calcium salt]
- kD (omalizumab [1]; Table 62B series): -34.9 mL/g
- Viscosity normalized to control (omalizumab [2]; Table 62B series): 0.93

Compound: OCCN(CCO)c1nc(N2CCCCC2)c2nc(N(CCO)CCO)nc(N3CCCCC3)c2n1 [dipyridamole]
- kD (omalizumab [1]; Table 62B series): -31.2 mL/g
- Viscosity normalized to control (omalizumab [2]; Table 62B series): 1.10

Compound: NCCO [ethanolamine HCl]
- kD (omalizumab [1]; Table 62B series): -22.4 mL/g
- Viscosity normalized to control (omalizumab [2]; Table 62B series): 0.51

Compound: Nc1ccc(C(=O)O)cc1 [p-aminobenzoic acid]
- % increased stability (ustekinumab [4]): 2.7%

Compound: Pyridyl ethylamine
- % change in stability (ustekinumab [5]): 85.6%

Compound: OC[C@@H](O)[C@@H](O[C@@H]1O[C@H](CO)[C@H](O)[C@H](O)[C@H]1O)[C@H](O)[C@@H](O)CO [Lactitol]
- % change in stability (ustekinumab [5]): 0.6%

Compound: NC(=NO)c1ccccc1 [benzamide oxime]
- % increased stability (ustekinumab [4]): 1.4%

Compound: CN(C)CCc1ccc(O)cc1 [Hordenine HCl]
- DLS Viscosity, Replicate 1 (omalizumab [3]): 36.9 cP
- DLS Viscosity, Replicate 2 (omalizumab [3]): 22.8 cP

Compound: CCc1ncc[nH]1 [Excipient 2-ethylimidazole, 2-ethylimidazole]
- DLS Viscosity, Replicate 1 (omalizumab [3]): 57.5 cP
- DLS Viscosity, Replicate 2 (omalizumab [3]): 71.8 cP

Compound: NCc1cccc(CN)c1 [m-xylylenediamine]
- kD (omalizumab [1]; Table 62B series): -13.1 mL/g
- Viscosity normalized to control (omalizumab [2]; Table 62B series): 0.22

Compound: Nc1ccn([C@@H]2O[C@H](COP(=O)(O)O)[C@@H](O)[C@H]2O)c(=O)n1 [Cytidine monophosphate]
- % change in stability (ustekinumab [5]): 83.1%

Compound: Nc1ccncc1 [Excipient 4-aminopyridine, 4-aminopyridine]
- kD (omalizumab [1]; Table 62B series): -22.5 mL/g
- Viscosity normalized to control (omalizumab [2]; Table 62B series): 0.59

Compound: O=C(O)c1cccc(O)n1 [6-hydroxypyridine-2-carboxylic acid]
- kD (omalizumab [1]; Table 62A series): -31.9 mL/g
- Viscosity normalized to control (omalizumab [2]; Table 62A series): 0.93

Compound: OC[C@@H](O)[C@@H](O)CO [Erythritol]
- % change in stability (ustekinumab [5]): 1.8%

Compound: Nc1nc(=O)n([C@@H]2CS[C@H](CO)O2)cc1F [Emtricitabine]
- % change in stability (ustekinumab [5]): 2.9%

Compound: NC(=NO)c1ccccc1 [Benzamide oxime]
- % change in stability (ustekinumab [5]): 70.6%

Compound: O=C(O)CN(CCN(CC(=O)O)CC(=O)O)CCN(CC(=O)O)CC(=O)O [Diethylenetriaminepentaacetic acid]
- % change in stability (ustekinumab [5]): 11.8%

Compound: O=C(O)c1cccnc1 [nicotinic acid]
- kD (omalizumab [1]; Table 62B series): -24.5 mL/g
- Viscosity normalized to control (omalizumab [2]; Table 62B series): 0.55

Compound: O=S(=O)(O)c1cccc2c(S(=O)(=O)O)cccc12 [1,5-naphthalenedisulfonic acid]
- kD (omalizumab [1]; Table 62A series): -25.1 mL/g
- Viscosity normalized to control (omalizumab [2]; Table 62A series): 0.83

Compound: NC(=O)CN1CCCC1=O [Piracetam]
- Omalizumab kD [6, 7]: -23.6 mL/g
- Ustekinumab kD [6, 7]: 27.3 mL/g

Compound: CNCC(=O)O [sarcosine]
- kD (omalizumab [1]; Table 62B series): -29.9 mL/g
- Viscosity normalized to control (omalizumab [2]; Table 62B series): 1.33

Compound: OC[C@H]1OC(O)[C@@H](O)[C@@H](O)[C@@H]1O (stereo partly shown) [Mannose]
- % change in stability (ustekinumab [5]): 9.4%

Compound: NCCCN [1,3-Diaminopropane]
- kD (omalizumab [1]; Table 62A series): -11.3 mL/g
- Viscosity normalized to control (omalizumab [2]; Table 62A series): 0.49

Compound: O=C(O)[C@]1(O)C[C@@H](O)[C@@H](O)[C@H](O)C1 [quinic acid]
- kD (omalizumab [1]; Table 62B series): -24.2 mL/g
- Viscosity normalized to control (omalizumab [2]; Table 62B series): 0.67

Compound: NCC(=O)NCC(=O)NCC(=O)NCC(=O)O [Tetraglycine] (H-GGGG-OH)
- DLS Viscosity, Replicate 1 (omalizumab [3]): 89.7 cP
- DLS Viscosity, Replicate 2 (omalizumab [3]): 72.2 cP

Compound: C1COCCOCCOCCOCCO1 [15-crown-5 ether]
- Omalizumab kD [6, 7]: -25.0 mL/g
- Ustekinumab kD [6, 7]: 26.7 mL/g

Compound: NCCCC[C@H](N)C(=O)O [lysine]
- kD (omalizumab [1]; Table 62B series): -10.1 mL/g
- Viscosity normalized to control (omalizumab [2]; Table 62B series): 0.46

Compound: Cc1ncc[nH]1 [Excipient 2-methylimidazole, 2-methylimidazole]
- DLS Viscosity, Replicate 1 (omalizumab [3]): 65.6 cP
- DLS Viscosity, Replicate 2 (omalizumab [3]): 81.3 cP

Compound: CC[N+](CC)(CC)CC.Cl [Tetraethylammonium HCl]
- DLS Viscosity, Replicate 1 (omalizumab [3]): 73.7 cP
- DLS Viscosity, Replicate 2 (omalizumab [3]): 58.3 cP

Compound: O=S(=O)([O-])CCC[n+]1ccccc1 [3-(1-Pyridinio)-1-propanesulfonate]
- Omalizumab kD [6, 7]: -30.2 mL/g
- Ustekinumab kD [6, 7]: 26.7 mL/g

Compound: CC(=O)CC(=O)OCc1ccccc1 [Benzyl acetonacetate]
- Omalizumab kD [6, 8]: -27.0 mL/g
- Ustekinumab kD [6, 8]: 26.6 mL/g

Compound: COc1cc(C=CC(=O)O)ccc1O [4-hydroxy-3-methoxycinnamic acid]
- Omalizumab kD [6, 7]: -26.6 mL/g
- Ustekinumab kD [6, 7]: 21.0 mL/g

Compound: NC(=O)c1ccc[n+]([C@@H]2O[C@H](COP(=O)([O-])O)[C@@H](O)[C@H]2O)c1 [nicotinamide mononucleotide]
- kD (omalizumab [1]; Table 62B series): -31.4 mL/g
- Viscosity normalized to control (omalizumab [2]; Table 62B series): 0.83

Compound: NCCS [cysteamine HCl]
- kD (omalizumab [1]; Table 62B series): -18.5 mL/g
- Viscosity normalized to control (omalizumab [2]; Table 62B series): 0.73

Compound: COC(=O)[C@H](Cc1ccccc1)NC(=O)[C@@H](N)CC(=O)O [Aspartame] (H-Asp-Phe-OMe)
- Viscosity normalized to control (omalizumab [2]; Table 62A series): 0.71

Compound: NCCCCNCCCN [spermidine]
- kD (omalizumab [1]; Table 62B series): -13.7 mL/g
- Viscosity normalized to control (omalizumab [2]; Table 62B series): 0.31
